Results: the supplement of paper PMC11451515

Tested on: SEM cells
Assay: cell viability relative to DMSO control; higher = less cytotoxic
Conditions: 48 h
In short: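 Leukemia cells (NOMO1 or SEM, 500 cells/well; P12-Ichikawa, 1000 cells/well) were seeded in 5 μl in 1536-well plates after at least four passages of adaptation to each medium. They received library compounds in DMSO by pin dosing, 11 threefold points from 47 μM to 0.79 nM. Luminescence with CellTiter-Glo One was read after 48 h at 37°C. Viability is stated per plate relative to DMSO wells, with cell-free wells as background.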

[1] = HPLM + 10% dialyzed FBS, 0.000781 µM
[2] = HPLM + 10% dialyzed FBS, 0.00234 µM
[3] = HPLM + 10% dialyzed FBS, 0.00702 µM
[4] = HPLM + 10% dialyzed FBS, 0.0211 µM
[5] = HPLM + 10% dialyzed FBS, 0.0632 µM
[6] = HPLM + 10% dialyzed FBS, 0.19 µM
[7] = HPLM + 10% dialyzed FBS, 0.569 µM
[8] = HPLM + 10% dialyzed FBS, 1.71 µM
[9] = HPLM + 10% dialyzed FBS, 5.12 µM
[10] = HPLM + 10% dialyzed FBS, 15.4 µM
[11] = HPLM + 10% dialyzed FBS, 46.1 µM
[12] = RPMI 5 mM glucose + 10% FBS, 0.000781 µM
[13] = RPMI 5 mM glucose + 10% FBS, 0.00234 µM
[14] = RPMI 5 mM glucose + 10% FBS, 0.00702 µM
[15] = RPMI 5 mM glucose + 10% FBS, 0.0211 µM
[16] = RPMI 5 mM glucose + 10% FBS, 0.0632 µM
[17] = RPMI 5 mM glucose + 10% FBS, 0.19 µM
[18] = RPMI 5 mM glucose + 10% FBS, 0.569 µM
[19] = RPMI 5 mM glucose + 10% FBS, 1.71 µM
[20] = RPMI 5 mM glucose + 10% FBS, 5.12 µM
[21] = RPMI 5 mM glucose + 10% FBS, 15.4 µM
[22] = RPMI 5 mM glucose + 10% FBS, 46.1 µM
[23] = RPMI 5 mM glucose + 10% dialyzed FBS, 0.000781 µM
[24] = RPMI 5 mM glucose + 10% dialyzed FBS, 0.00234 µM
[25] = RPMI 5 mM glucose + 10% dialyzed FBS, 0.00702 µM
[26] = RPMI 5 mM glucose + 10% dialyzed FBS, 0.0211 µM
[27] = RPMI 5 mM glucose + 10% dialyzed FBS, 0.0632 µM
[28] = RPMI 5 mM glucose + 10% dialyzed FBS, 0.19 µM
[29] = RPMI 5 mM glucose + 10% dialyzed FBS, 0.569 µM
[30] = RPMI 5 mM glucose + 10% dialyzed FBS, 1.71 µM
[31] = RPMI 5 mM glucose + 10% dialyzed FBS, 5.12 µM
[32] = RPMI 5 mM glucose + 10% dialyzed FBS, 15.4 µM
[33] = RPMI 5 mM glucose + 10% dialyzed FBS, 46.1 µM

## C[S+]([O-])c1ccc(-c2nc(-c3ccc(F)cc3)c(-c3ccncc3)[nH]2)cc1 (stereo not drawn)
[1]
  cell viability: 83.2%
[2]
  cell viability: 84.2%
[3]
  cell viability: 91.8%
[4]
  cell viability: 84%
[5]
  cell viability: 102%
[6]
  cell viability: 81.5%
[7]
  cell viability: 86.9%
[8]
  cell viability: 62%
[9]
  cell viability: 40.9%
[10]
  cell viability: 4.09%
[11]
  cell viability: 2.22%
[12]
  cell viability: 103%
[13]
  cell viability: 106%
[14]
  cell viability: 102%
[15]
  cell viability: 105%
[16]
  cell viability: 107%
[17]
  cell viability: 79.3%
[18]
  cell viability: 75.1%
[19]
  cell viability: 41%
[20]
  cell viability: 21.9%
[21]
  cell viability: 3.29%
[22]
  cell viability: 2.41%
[23]
  cell viability: 92.6%
[24]
  cell viability: 99.7%
[25]
  cell viability: 89.8%
[26]
  cell viability: 97.8%
[27]
  cell viability: 98.1%
[28]
  cell viability: 77%
[29]
  cell viability: 79.2%
[30]
  cell viability: 59.4%
[31]
  cell viability: 26.1%
[32]
  cell viability: 3.71%
[33]
  cell viability: 2.23%

## COc1cc(OC)c(NC(=O)Nc2cc(C)on2)cc1Cl
[1]
  cell viability: 95.9%
[2]
  cell viability: 94.2%
[3]
  cell viability: 104%
[4]
  cell viability: 98.4%
[5]
  cell viability: 94.6%
[6]
  cell viability: 99.8%
[7]
  cell viability: 97.3%
[8]
  cell viability: 112%
[9]
  cell viability: 100%
[10]
  cell viability: 97.5%
[11]
  cell viability: 71.3%
[12]
  cell viability: 74.3%
[13]
  cell viability: 79.6%
[14]
  cell viability: 90.9%
[15]
  cell viability: 89.6%
[16]
  cell viability: 82%
[17]
  cell viability: 86.5%
[18]
  cell viability: 91.3%
[19]
  cell viability: 92%
[20]
  cell viability: 76.6%
[21]
  cell viability: 80.6%
[22]
  cell viability: 63.8%
[23]
  cell viability: 84.8%
[24]
  cell viability: 100%
[25]
  cell viability: 90.3%
[26]
  cell viability: 94.5%
[27]
  cell viability: 105%
[28]
  cell viability: 108%
[29]
  cell viability: 96.1%
[30]
  cell viability: 89.7%
[31]
  cell viability: 101%
[32]
  cell viability: 91.5%
[33]
  cell viability: 71.1%

## CN(C)CCN(Cc1ccc(Cl)cc1)c1ccccn1.Cl
[1]
  cell viability: 79.9%
[2]
  cell viability: 80.5%
[3]
  cell viability: 80.9%
[4]
  cell viability: 80.1%
[5]
  cell viability: 79.3%
[6]
  cell viability: 84.8%
[7]
  cell viability: 89.9%
[8]
  cell viability: 94.4%
[9]
  cell viability: 86.6%
[10]
  cell viability: 88%
[11]
  cell viability: 86.9%
[12]
  cell viability: 90.8%
[13]
  cell viability: 90.8%
[14]
  cell viability: 92.8%
[15]
  cell viability: 84.4%
[16]
  cell viability: 95.7%
[17]
  cell viability: 108%
[18]
  cell viability: 102%
[19]
  cell viability: 99.5%
[20]
  cell viability: 98.8%
[21]
  cell viability: 103%
[22]
  cell viability: 84.7%
[23]
  cell viability: 83.2%
[24]
  cell viability: 92.1%
[25]
  cell viability: 96.4%
[26]
  cell viability: 100%
[27]
  cell viability: 94%
[28]
  cell viability: 106%
[29]
  cell viability: 84%
[30]
  cell viability: 96.1%
[31]
  cell viability: 92.2%
[32]
  cell viability: 106%
[33]
  cell viability: 91.6%

## OC1=CC=C(C=C1)\C2=C\C(=O)C3=C(O2)C=C(O)C=C3O
[1]
  cell viability: 106%
[2]
  cell viability: 111%
[3]
  cell viability: 115%
[4]
  cell viability: 112%
[5]
  cell viability: 113%
[6]
  cell viability: 108%
[7]
  cell viability: 108%
[8]
  cell viability: 94.4%
[9]
  cell viability: 106%
[10]
  cell viability: 113%
[11]
  cell viability: 96.3%
[23]
  cell viability: 92%
[24]
  cell viability: 121%
[25]
  cell viability: 119%
[26]
  cell viability: 109%
[27]
  cell viability: 111%
[28]
  cell viability: 108%
[29]
  cell viability: 108%
[30]
  cell viability: 94.9%
[31]
  cell viability: 93.6%
[32]
  cell viability: 98%
[33]
  cell viability: 64.2%

## NC\1=N\C(=O)N(\C=C1)[C@H]\2[C@H](O)[C@H](O)C(=C2F)\CO
[1]
  cell viability: 77.6%
[2]
  cell viability: 90.2%
[3]
  cell viability: 85%
[4]
  cell viability: 103%
[5]
  cell viability: 92.2%
[6]
  cell viability: 97.6%
[7]
  cell viability: 108%
[8]
  cell viability: 96.3%
[9]
  cell viability: 52.5%
[10]
  cell viability: 28.8%
[11]
  cell viability: 16.8%
[12]
  cell viability: 118%
[13]
  cell viability: 116%
[14]
  cell viability: 130%
[15]
  cell viability: 148%
[16]
  cell viability: 113%
[17]
  cell viability: 118%
[18]
  cell viability: 128%
[19]
  cell viability: 117%
[20]
  cell viability: 74.1%
[21]
  cell viability: 74.5%
[22]
  cell viability: 57.9%
[23]
  cell viability: 90.2%
[24]
  cell viability: 95.3%
[25]
  cell viability: 95.1%
[26]
  cell viability: 103%
[27]
  cell viability: 117%
[28]
  cell viability: 109%
[29]
  cell viability: 92.2%
[30]
  cell viability: 51.8%
[31]
  cell viability: 23.1%
[32]
  cell viability: 19%
[33]
  cell viability: 15.3%

## COC1=CC2=C(C=C1OC)[C@H]3[C@@H](CO2)OC4=C(C=CC5=C4\C=C/C(C)(C)O5)C3=O
[1]
  cell viability: 82.5%
[2]
  cell viability: 97.1%
[3]
  cell viability: 101%
[4]
  cell viability: 96.8%
[5]
  cell viability: 85.3%
[6]
  cell viability: 89%
[7]
  cell viability: 92.7%
[8]
  cell viability: 91%
[9]
  cell viability: 78.9%
[10]
  cell viability: 85.2%
[11]
  cell viability: 3.39%
[12]
  cell viability: 95.1%
[13]
  cell viability: 99.1%
[14]
  cell viability: 107%
[15]
  cell viability: 95.6%
[16]
  cell viability: 78.5%
[17]
  cell viability: 112%
[18]
  cell viability: 85.4%
[19]
  cell viability: 71%
[20]
  cell viability: 24.4%
[21]
  cell viability: 31%
[22]
  cell viability: 3.59%
[23]
  cell viability: 87.7%
[24]
  cell viability: 85.1%
[25]
  cell viability: 92.4%
[26]
  cell viability: 88.9%
[27]
  cell viability: 64.6%
[28]
  cell viability: 79.2%
[29]
  cell viability: 75.4%
[30]
  cell viability: 63%
[31]
  cell viability: 44.8%
[32]
  cell viability: 46.2%
[33]
  cell viability: 3.18%

## C#C[C@]1(O)CC[C@H]2[C@@H]3CCc4cc(OC)ccc4[C@H]3CC[C@@]21C
[1]
  cell viability: 115%
[2]
  cell viability: 108%
[3]
  cell viability: 114%
[4]
  cell viability: 119%
[5]
  cell viability: 122%
[6]
  cell viability: 114%
[7]
  cell viability: 110%
[8]
  cell viability: 107%
[9]
  cell viability: 40.3%
[10]
  cell viability: 111%
[11]
  cell viability: 107%
[12]
  cell viability: 119%
[13]
  cell viability: 114%
[14]
  cell viability: 120%
[15]
  cell viability: 127%
[16]
  cell viability: 126%
[17]
  cell viability: 125%
[18]
  cell viability: 120%
[19]
  cell viability: 130%
[20]
  cell viability: 109%
[21]
  cell viability: 145%
[22]
  cell viability: 109%
[23]
  cell viability: 110%
[24]
  cell viability: 111%
[25]
  cell viability: 113%
[26]
  cell viability: 125%
[27]
  cell viability: 120%
[28]
  cell viability: 110%
[29]
  cell viability: 107%
[30]
  cell viability: 134%
[31]
  cell viability: 106%
[32]
  cell viability: 122%
[33]
  cell viability: 97.7%

## O=c1[nH]cnc2c1ncn2[C@H]1CC[C@@H](CO)O1
[1]
  cell viability: 85.7%
[2]
  cell viability: 97%
[3]
  cell viability: 104%
[4]
  cell viability: 102%
[5]
  cell viability: 88.3%
[6]
  cell viability: 101%
[7]
  cell viability: 102%
[8]
  cell viability: 110%
[9]
  cell viability: 99.8%
[10]
  cell viability: 90.5%
[11]
  cell viability: 69.4%
[12]
  cell viability: 85.1%
[13]
  cell viability: 86.6%
[14]
  cell viability: 98%
[15]
  cell viability: 95.8%
[16]
  cell viability: 90.8%
[17]
  cell viability: 86.4%
[18]
  cell viability: 99.9%
[19]
  cell viability: 94%
[20]
  cell viability: 83.4%
[21]
  cell viability: 60.8%
[22]
  cell viability: 47.4%
[23]
  cell viability: 77.6%
[24]
  cell viability: 86.1%
[25]
  cell viability: 84.3%
[26]
  cell viability: 85.2%
[27]
  cell viability: 77.7%
[28]
  cell viability: 97.6%
[29]
  cell viability: 105%
[30]
  cell viability: 92.7%
[31]
  cell viability: 99.5%
[32]
  cell viability: 67.8%
[33]
  cell viability: 70.3%
